{
  "source": "patent US9339541B2",
  "about": "“Thiophosphate nucleosides for the treatment of HCV” (priority 2013, dated 2016)",
  "data": [
    {"tested_on": "HCV genotype 1b replicon", "assay_type": "cell-based", "conditions": "Huh-7-derived cell line (Zluc), HCV genotype 1b replicon with luciferase reporter, 72 hours of incubation", "units": {"EC50": "µM"}, "values": [
      {"smiles": "CCOc1nc(N)nc2c1ncn2[C@@H]1O[C@H](COP(=O)(N[C@@H](C)C(=O)OC(C)C)SCC2NC(=O)NC2=O)[C@@H](O)[C@@]1(C)F", "note": "(single isomer, unassigned) [3b Diastereomer 1]", "EC50": "1 to 10"},
      {"smiles": "CC(C)OC(=O)[C@H](C)NP(=O)(OC[C@H]1O[C@@H](n2ccc(=O)[nH]c2=O)[C@](C)(O)[C@@H]1O)SCC1NC(=O)NC1=O", "note": "(single isomer, unassigned) [4b Diastereomer 1]", "EC50": "> 10"},
      {"smiles": "CC(C)OC(=O)[C@@H](C)NP(=O)(OC[C@H]1O[C@@H](n2ccc(=O)[nH]c2=O)[C@](C)(Cl)[C@@H]1O)SC1CCCC1", "note": "(single isomer, unassigned) [8a Diastereomer 1]", "EC50": "> 10"},
      {"smiles": "CC(C)OC(=O)[C@H](C)NP(=O)(OC[C@H]1O[C@@H](n2ccc(=O)[nH]c2=O)[C@](C)(Cl)[C@@H]1O)SC1CCCC1", "note": "(single isomer, unassigned) [8b Diastereomer 1]", "EC50": "1 to 10"},
      {"smiles": "COC(=O)N[C@@H](CSP(=O)(N[C@@H](C)C(=O)OC(C)C)OC[C@H]1O[C@@H](n2cnc3c(OC)nc(N)nc32)[C@](C)(O)[C@@H]1O)C(=O)OC(C)C", "note": "(stereo partly drawn) [Compound 2by]", "EC50": "1 to 10"},
      {"smiles": "CCOC(=O)[C@H](C)NP(=O)(OC[C@H]1O[C@@H](n2cnc3c(OCC)nc(N)nc32)[C@](C)(O)[C@@H]1O)SCC", "note": "(stereo partly drawn) [Compound 10b]", "EC50": "≤ 0.25"},
      {"smiles": "CCOC(=O)[C@H](C)NP(=O)(OC[C@H]1O[C@@H](n2cnc3c(=O)[nH]c(N)nc32)[C@](C)(O)[C@@H]1O)SCC", "note": "(stereo partly drawn) [Compound 13b]", "EC50": "1 to 10"},
      {"smiles": "CCOC(=O)CCSP(=O)(N[C@@H](C)C(=O)OC(C)C)OC[C@H]1O[C@@H](n2ccc(=O)[nH]c2=O)[C@](C)(O)[C@@H]1O", "note": "(stereo partly drawn) [Compound 15b]", "EC50": "> 10"},
      {"smiles": "COC(=O)CSP(=O)(N[C@@H](C)C(=O)OC(C)C)OC[C@H]1O[C@@H](n2ccc(=O)[nH]c2=O)[C@](C)(Cl)[C@@H]1O", "note": "(stereo partly drawn) [Compound 17b]", "EC50": "> 10"}
    ]}
  ]
}
